Reference: paper PMC11876601 (Molecular Systems Biology, 2025)

Legend:
Experiment in all cases: cells
Parameters in all cases: Viability of PDAC cell lines, ATPlite luminescence, 11-dose single-agent curve fit
PANC-1 = conditions: Homo sapiens, PANC-1, 72 h, read-out: EC50 [nM]
Method: (§1) Afterward, small amounts were transferred to 384-well intermediate plates (Greiner Bio-One GmbH, Germany). […] For drug combination screening, 1000 to 5000 cells were seeded into 384-well plates (CulturPlate™, Perkin Elmer, MA, USA) using a Multidrop™ Combi Reagent Dispenser (Thermo Scientific, MA, USA) in 50 µl medium per well 24 h prior to drug treatment (seeding densities see Appendix Table S1). […] The final DMSO concentration in each well was 0.2%. […] Eight wells per plate without library drug served as negative controls, and sixteen wells per plate containing 5 µM Staurosporine served as positive controls. […] Next, we analyzed the drug sensitivity of immortalized duct cell line HPDE to detect effects unrelated to pancreatic cancer.

Dan-G = conditions: 72 h, read-out: EC50 [nM]
Method: as §1

FAMPAC = conditions: 72 h, read-out: EC50 [nM]
Method: as §1

HPDE = conditions: HPDE, 72 h, read-out: EC50 [nM]
Method: as §1

HuP-T4 = conditions: Homo sapiens, HuP-T4, 72 h, read-out: EC50 [nM]
Method: as §1

Colo-357 = conditions: Homo sapiens, COLO357, 72 h, read-out: EC50 [nM]
Method: as §1

PSN-1 = conditions: Homo sapiens, PSN1, 72 h, read-out: EC50 [nM]
Method: as §1

Capan-1 = conditions: Homo sapiens, CAPAN-1, 72 h, read-out: EC50 [nM]
Method: as §1

AsPC-1 = conditions: Homo sapiens, ASPC1, 72 h, read-out: EC50 [nM]
Method: as §1

MiaPaCa-2 = conditions: Homo sapiens, MIA PaCa-2, 72 h, read-out: EC50 [nM]
Method: as §1

BxPC-3 = conditions: Homo sapiens, BXPC-3, 72 h, read-out: EC50 [nM]
Method: as §1

Suit2-07 = conditions: 72 h, read-out: EC50 [nM]
Method: as §1

PaTu-8988-T = conditions: Homo sapiens, PaTu 8988t, 72 h, read-out: EC50 [nM]
Method: as §1

SMILES	EC50 (PANC-1)	EC50 (Colo-357)	EC50 (AsPC-1)	EC50 (MiaPaCa-2)	EC50 (BxPC-3)	EC50 (Dan-G)	EC50 (FAMPAC)	EC50 (HPDE)	EC50 (HuP-T4)	EC50 (PSN-1)	EC50 (Capan-1)	EC50 (Suit2-07)	EC50 (PaTu-8988-T)
CO[C@H]1C[C@@H]2CC[C@@H](C)[C@@](O)(O2)C(=O)C(=O)N2CCCC[C@H]2C(=O)O[C@H]([C@H](C)C[C@@H]2CC[C@@H](OCCO)[C@H](OC)C2)CC(=O)[C@H](C)/C=C(\C)[C@@H](O)[C@@H](OC)C(=O)[C@H](C)C[C@H](C)/C=C/C=C/C=C/1C [Certican]	171 nM	238 nM	0.14 nM	1.84 nM	0.09 nM	0.21 nM	5.43 nM	0.16 nM	2.46 nM	0.05 nM	3520 nM	2610 nM	0.1 nM
Cc1cc(C)c(/C=C2\C(=O)Nc3ccccc32)[nH]1 [Semaxanib]	66.8 nM	317 nM	3330 nM	> 10000 nM	5.83 nM	169 nM	43.5 nM	> 10000 nM	42.4 nM	127 nM	5010 nM	2320 nM	815 nM
C[C@H]1Oc2cc(cnc2N)-c2c(nn(C)c2C#N)CN(C)C(=O)c2ccc(F)cc21 [Lorlatinib]	8920 nM	6220 nM	4980 nM	2650 nM	1270 nM	3210 nM	207 nM	999 nM	1320 nM	554 nM	1070 nM	3240 nM	5400 nM
Clc1ccc(Nc2nnc(Cc3ccncc3)c3ccccc23)cc1 [Vatalanib]	> 10000 nM	3990 nM	> 10000 nM	> 10000 nM	9360 nM	6860 nM	6650 nM	32.8 nM	23.9 nM	4870 nM	4530 nM	> 10000 nM	3840 nM
N#CC[C@H](C1CCCC1)n1cc(-c2ncnc3[nH]ccc23)cn1 [Ruxolitinib]	1370 nM	8280 nM	23.6 nM	1740 nM	6970 nM	117 nM	9910 nM	> 10000 nM	212 nM	2210 nM	0.51 nM	1750 nM	13.4 nM
CCC(=O)N1CC[C@H](Nc2ncnc3c2CN(c2cnc(OC)c(C(F)(F)F)c2)CC3)C1 [Leniolisib]	> 10000 nM	3830 nM	2110 nM	> 10000 nM	2210 nM	6460 nM	2610 nM	6030 nM	733 nM	8970 nM	4340 nM	4720 nM	9180 nM
O=c1sn(-c2cccc3ccccc23)c(=O)n1Cc1ccccc1 [Tideglusib]	> 10000 nM	24.5 nM	66.8 nM	344 nM	2600 nM	1490 nM	2070 nM	58 nM	4540 nM	0.13 nM	51.8 nM	9730 nM	636 nM
Cc1c(F)cc(C(=O)NC2CC2)cc1-c1ccc(C(=O)NCC(C)(C)C)cn1 [Losmapimod]	95.7 nM	26.1 nM	361 nM	449 nM	536 nM	363 nM	0.11 nM	25.6 nM	218 nM	130 nM	150 nM	10.7 nM	1180 nM
CCCS(=O)(=O)N[C@H]1C[C@@H](N(C)c2ncnc3[nH]ccc23)C1 [Abrocitinib]	140 nM	9870 nM	3850 nM	2760 nM	275 nM	> 10000 nM	2.68 nM	5620 nM	643 nM	> 10000 nM	37.4 nM	901 nM	3800 nM

Now from value to compound, other results behind:

EC50 (PANC-1)	EC50 (Colo-357)	EC50 (AsPC-1)	EC50 (MiaPaCa-2)	EC50 (BxPC-3)	SMILES	EC50 (Dan-G)	EC50 (FAMPAC)	EC50 (HPDE)	EC50 (HuP-T4)	EC50 (PSN-1)	EC50 (Capan-1)	EC50 (Suit2-07)	EC50 (PaTu-8988-T)
74 nM	852 nM	56.3 nM	4.24 nM	53.6 nM	CCN(CCCOc1ccc2c(Nc3cc(CC(=O)Nc4cccc(F)c4)[nH]n3)ncnc2c1)CCOP(=O)(O)O [Barasertib]	296 nM	40.1 nM	74.6 nM	56.8 nM	32.6 nM	42 nM	3290 nM	10300 nM
655 nM	0.12 nM	26.5 nM	> 10000 nM	683 nM	CC(C)Oc1ccc(-c2nn([C@@H](C)c3oc4ccc(F)cc4c(=O)c3-c3cccc(F)c3)c3ncnc(N)c23)cc1F [Umbralisib]	441 nM	8790 nM	6540 nM	1370 nM	62.6 nM	39.7 nM	1310 nM	4550 nM
804 nM	515 nM	292 nM	2520 nM	1670 nM	CONC(=O)c1ccccc1Nc1cc(Nc2cc(C)nn2C(C)C)ncc1Cl [GSK2256098]	3730 nM	3020 nM	156 nM	4790 nM	5120 nM	1650 nM	6450 nM	858 nM
> 10000 nM	3910 nM	9400 nM	7350 nM	> 10000 nM	CC1(C)CNc2cc(NC(=O)c3cccnc3NCc3ccncc3)ccc21 [Motesanib]	> 10000 nM	> 10000 nM	8730 nM	515 nM	2550 nM	9170 nM	942 nM	455 nM
6.65 nM	5000 nM	869 nM	> 10000 nM	> 10000 nM	CCCS(=O)(=O)Nc1ccc(F)c(C(=O)c2c[nH]c3ncc(-c4ccc(Cl)cc4)cc23)c1F [Vemurafenib]	> 10000 nM	2990 nM	> 10000 nM	> 10000 nM	> 10000 nM	> 10000 nM	1590 nM	708 nM
260 nM	196 nM	1050 nM	3580 nM	1780 nM	Cc1cn(-c2cc(NC(=O)c3ccc(C)c(Nc4nccc(-c5cnccn5)n4)c3)cc(C(F)(F)F)c2)cn1 [Radotinib]	5910 nM	4270 nM	6.45 nM	> 10000 nM	11 nM	4010 nM	99.5 nM	1390 nM
8800 nM	> 10000 nM	755 nM	4950 nM	> 10000 nM	Cc1cc(F)c(C(=O)Nc2cccc(-c3nncn3C(C)C)n2)cc1-n1cnc(C2CC2)c1 [Selonsertib]	10300 nM	> 10000 nM	> 10000 nM	3.85 nM	6150 nM	8570 nM	4310 nM	5440 nM
913 nM	> 10000 nM	> 10000 nM	3820 nM	> 10000 nM	Cc1ccc(Nc2nccc(N(C)c3ccc4c(C)n(C)nc4c3)n2)cc1S(N)(=O)=O [Pazopanib]	4120 nM	5020 nM	2410 nM	135 nM	8400 nM	> 10000 nM	> 10000 nM	35.4 nM
